Test results as given in patent US10285963B2, “Combination of metabolic bio-energetic and nutra-epigentic regulators, nutraceutical compounds in conventional and nanotechnologies combination to revert and prevent the chronic damage accelerated cellular senescence produced by diabetes and other degenerative chronic complex diseases” (priority 2015, dated 2019).

Experiments:
[1] = tested on: human embryonic kidney (HEK-293) cell line; assay: MTT microdilution assay, HEK-293; format: cell-based
Source text: (§1) MTT method, based on reduction of 3-(4,5-dimethylthiazol-2-yl)-2,5-diphenyltetrazolium bromide, is an assay that reflects the metabolic function of cells. MTT is a yellow dye reduced to formazan (blue dye) by mitochondrial dehydrogenases, which are part of the respiratory chain of viable cells (Hwa et al., 2015). It is used in a quantitative colorimetric microdilution method applied for determination of survival and proliferative capacity of mammalian cells (Mosmann T. in J. Immunol Methods, 1983, 65 (1-2): 55). […]
(§2) Dulbecco's modified Eagle Minimum Essential culture Medium/F12 (DMEM/F12) was used, supplemented with 10% fetal bovine serum (FBS) and 1 mL of a mixture of antibiotics (200,000 IU of penicillin and 0.5 g streptomycin). […] Subsequently MTT solution was removed, retaining the formed formazan salts, then they added 0.1 mL of isopropyl alcohol and the absorbance at 540 nm was read in a Synergy HT microplate reader with GEN 5 embedded software. In the calculation of cell viability percentage detected absorbance in wells with cells proliferated in untreated culture medium were considered 100% of living cells. […] Results of data analysis are expressed as the average±standard deviation (FIG. 5).

[2] = tested on: Vero cell line (African green monkey kidney cells); assay: MTT microdilution assay, Vero; format: cell-based
Source text: as §1, §2

[3] = tested on: human peripheral blood mononuclear cells (lymphocytes) DNA; conditions: 0.1 mM, positive control, 24 h
Protocol: By using culture medium cell concentration was adjusted to 1×10^6 cells/mL. Cells obtained were seeded in Eppendorf vials at a density of 3×10^4 cells/mL and incubated at 37° C. and 5% CO2 for 24 hours to stabilize. […] Cells were incubated for 24 h to be later precipitated by centrifugation at 1200 rpm for 5 min and treated with 0.1 mL trypsin (0.25%) for 3 min at 37° C. and 5% CO2. Cells were resuspended in 1 mL of RPMI 1640 medium and centrifuged again at 1200 rpm for 5 min, the supernatant was discarded and the cells were incubated with 1 mL of lysis solution (NaCl 2.5 M, Na2EDTA 100 mM, Tris HCl 10 mM, and 1% Triton) at 4° C. for 24 h. After 24 h, vials were centrifuged at 1200 rpm at 4° C. […] The generated images were acquired with a high resolution digital camera (FIG. 4, above) and analyzed with ImageQuant TL v8.1 software. The area of the comet head representing intact DNA was quantified by densitometric analysis and plotted as percentage versus the negative control (culture medium) (FIG. 4, in the middle). The tail of the comet representing the damaged DNA was measured in millimeters and represented as the percentage of the positive control (H2O2). Data were expressed as mean±mean standard deviation (FIG. 4, below). Data obtained were analyzed by analysis of variance (ANOVA) using in case of any difference a post-hoc Tukey test using GraphPad Prism v6.0 software, at p<0.05.

[4] = tested on: peripheral human lymphocytes; assay: Lymphocyte proliferation and viability, trypan blue count; format: cell-based; conditions: positive control 1.25 mg/mL, 48 h
Source text: For the assay, a biological in vitro system using mononuclear cells culture from peripheral blood mononuclear cells—peripheral human lymphocytes was used. The system was selected because they form from 25 to 35% of leukocytes and they are the main immune response promoting cells since they recognize foreign antigens and activate cellular immune response mediators, causing proliferation or suppression phenomena before endogenous or exogenous stimuli. These cultures are widely used in research to evaluate the effects of various compounds (Marti-Centelles R. et al in J. Med Chem Eur, 2015, 103: 488). […] As a positive control the test with concanavalin A (Con A) was performed, which is a globular plant-origin protein that induces mitosis in lymphocytes causing clonal proliferation (Ganem and Martin Gonzalez Baez F A O. in Universo Diagnóstico, 2000, 1 (1):1). Assay with RPMI-1640 (medium without treatment) was performed as blank. […]
Optical light microscope with 40× objective was used. Cells were counted with Neubauer chamber using 0.05 mL suspension of each resuspended samples in 0.4 mL of PBS 1× and 0.05 mL of trypan blue. […] The results were analyzed by the variance analysis test (ANOVA) with SPSS version 16 and then Dunnet's test was applied to discern whether a difference between control and experimental treatments was present, taking values of p<0.05 as significant.

Artemia salina nauplii = Artemia salina nauplii toxicity assay; conditions: for toxicity expressed as percent mortality of A. salina nauplii: any of the tested concentrations (62.5-1000 ppm)
Source text: Artemia salina is a crustacean sensitive to a wide range of compounds with biological activity and very different chemical structures. Michael et al. (Michael A. S. et al in Science, 1956, 123: 464) and Vanhaecke et al. (Vanhaecke et al in Ecotoxicol Environ Saf 1981, 5:382) proposed its use for toxicity testing. It is a test that allows conducting practically and economically toxicity studies of different nature substances. […] This model is accepted by the FDA (Food Drug Administration) and EPA (Environmental Protection Agency in 2002), as a test for evaluating the toxicity and ecotoxicity of pharmaceutical and/or food products.
In an Artemia salina hatcher, 0.5 g cysts of Artemia salina were hatched in artificial seawater at 37 g/L at a temperature of 27° C. with constant aeration for 24 h. In every 5 wells out of a 96-well plate, 0.1 mL of artificial seawater (37 g/L) was applied with a single-channel pipette with ten nauplii, separated from the hatcher and counted one by one to achieve an exact separation of 10 nauplii. […] Using a multichannel micropipette, 0.1 mL of the solutions prepared in the plate were added, achieving a final concentration of 62.5, 125, 250, 500 and 1000 ppm per five wells of nauplii. For blank samples, 10 untreated nauplii were placed in a 0.2 mL volume of artificial seawater (37 g/L). The microplate was incubated at 25° C. for 24 h. After incubation period, A. salina nauplii alive and dead were counted with a stereoscopic microscope and % mortality was determined. Toxicity was expressed as percent mortality of A. salina nauplii: 0-10% non-toxic, moderately toxic 11-50%, 51-90% highly toxic and 100% extremely toxic, considering the Gualdron et al, scale. (Gualdron R. et al in Chem Rev. Col. Farm, 1997, 26: 15 to 19). […] Data were analyzed with the Statistical Package Graph Pad Prism version 6, by analysis of variance (ANOVA) test and Tukey multiple comparisons (p<0.05).

[5] = tested on: rabbits with alloxan-induced diabetes; assay: Alloxan-induced diabetes in rabbits; format: in vivo
Protocol: (§3) In all tests carried out on laboratory animals the treatment was orally administered in a weight-dependent measure, through orogastric cannula, after conventional feed consumption for rodents and lagomorphs (Commission of the European Communities in Off. J. Eur. Comm (L 383 A), 1992, 35: 110), respectively.
(§4) Body weight was determined and recorded at the beginning and end of the experiment. Also in case of rabbits, clinical laboratory tests were performed before and after each test: blood biometry, blood chemistry and activity of transaminase enzymes: aspartate aminotransferase (AST), alanine aminotransferase (TGP) and transpeptidase gamma glutamyl transaminase (GGT). In rats, these parameters were determined only at the end of testing to prevent blood loss. Finally, we proceeded with the euthanasia step to animals applying a series of anesthetics and potassium chloride (KCl). Subsequently, an organ and fundamental tissue macroscopic examination and necropsy was conducted, primarily including heart, kidney, spleen, pancreas, lung, liver, ovaries and testicles, according to each case. Samples taken were sent to carry out a histopathological study.
(§5) In addition, the test in rats and rabbits with alloxan-induced diabetes was performed. […] Insulin glargine was administered subcutaneously at a dose of 0.7 U/kg in a single morning administration every 24 h.

[6] = tested on: rats with alloxan-induced diabetes; assay: Alloxan-induced diabetes in rats; format: in vivo
Protocol: as §3, §4, §5

[7] = positive control, 1.95-2000 ppm

Triton X-100
LC50 ([1]; HEK-293, MTT, 24 h): 764.10±21.93 ppm | effect on absorbance/viability [1, 7]: dose-depending effect | LC50 ([2]; Vero, MTT, 24 h): 42.80±1.60 ppm | effect on absorbance/viability [2, 7]: dose-depending effect

OO [hydrogen peroxide]
DNA damage (genotoxicity) [3]: much more rapid dsDNA diffusion

concanavalin A
increase in the number of cells [4]: 65% | number of cells [4]: 9,101,667 cells/mL

3, 5, 4-trihydroxy-trans-stilbene [resveratrol]
mortality of A. salina nauplii (Artemia salina nauplii; 62.6 ppm solution, 24 h): 38% | toxicity class (percent mortality scale) (Artemia salina nauplii; 62.6 ppm solution, 24 h): moderate toxicity | LC50 (lethal concentration to 50% nauplii) (Artemia salina nauplii; 24 h): 89.48 ppm | toxicity class (percent mortality scale) (Artemia salina nauplii; from the LC50 concentration (89.48 ppm)): highly toxic (51-90% highly toxic)

NCC(=O)O [Glycine, glycine]
toxicity expressed as percent mortality of A. salina nauplii (Artemia salina nauplii; 24 h): toxicity free

insulin
kidney histology ([5]; diabetic female rabbit treated only with insulin): early diabetic nephropathy | pancreas histology ([5]; diabetic female rabbit treated only with the named treatment): complete destruction of the organ | kidney histology, tubular component ([5]; diabetic male rabbit treated only with insulin): changes by coagulative necrosis and nuclei pyknosis | macroscopic pancreatic alterations at autopsy ([5]; diabetic rabbits, single treatment only): most severe pancreatic alterations | capillary glucose ([6]; diabetic rats treated only with insulin, up to 19 days): increase in the tendency for capillary glucose | weight change ([6]; diabetic rats, pure insulin, compared to other groups): tendency of weight loss decrease is much more visible | macroscopic pancreatic alterations at autopsy ([6]; diabetic rats, single treatment only): most severe pancreatic alterations

N=C(N)NCCC[C@H](N)C(=O)O [arginine]
toxicity expressed as percent mortality of A. salina nauplii (Artemia salina nauplii; 24 h): toxicity free
